Patent US20140045873A1, “NOVEL MICROBIOCIDES” (SYNGENTA PARTICIPATIONS AG, priority 2010, published 2014)
Where two headings read alike, the source gives them in different places.

Experiments:
[1] = tested on: Mycosphaerella graminicola (Septoria tritici); assay: Mycosphaerella graminicola (Septoria tritici) / liquid culture (Septoria blotch); type: cell-based; details: Zymoseptoria tritici, read-out: control of Mycosphaerella graminicola (inhibition of growth, photometric)
[2] = tested on: Mycosphaerella arachidis (Cercospora arachidicola); assay: Mycosphaerella arachidis (Cercospora arachidicola) / liquid culture (early leaf spot); type: cell-based; details: read-out: control of Mycosphaerella arachidis (inhibition of growth, photometric)
Gaeumannomyces graminis = Gaeumannomyces graminis / liquid culture (take-all of cereals); type: cell-based; details: read-out: control of Gaeumannomyces graminis (inhibition of growth, photometric)
[3] = tested on: Thanatephorus cucumeris (Rhizoctonia solani); details: read-out: control of Thanatephorus cucumeris (inhibition of growth, photometric)
[4] = tested on: Phaeosphaeria nodorum (Septoria nodorum); details: Parastagonospora nodorum, in Triticum aestivum, foliar, read-out: control of Phaeosphaeria nodorum (percent disease control compared to untreated)
[5] = tested on: Monographella nivalis (Microdochium nivale); assay: Monographella nivalis (Microdochium nivale) / liquid culture (foot rot cereals); type: cell-based; details: PDB, 24° C., 4-5 days after application, read-out: control of Monographella nivalis (inhibition of growth, photometric)
Pyrenophora teres = details: in Hordeum vulgare, foliar, read-out: control of Pyrenophora teres (disease control compared to untreated)
[6] = tested on: Glomerella lagenarium (Colletotrichum lagenarium); assay: Glomerella lagenarium (Colletotrichum lagenarium) / liquid culture (anthracnose); type: cell-based; details: Colletotrichum orbiculare, read-out: control of Glomerella lagenarium (inhibition of growth, photometric)
[7] = tested on: Botryotinia fuckeliana (Botrytis cinerea); assay: Botryotinia fuckeliana (Botrytis cinerea) / liquid culture (gray mould); type: cell-based; details: Vogels broth, 24° C., 3-4 days after application, read-out: control of Botryotinia fuckeliana (inhibition of growth, photometric)
From the text: Botryotinia Fuckeliana (Botrytis cinerea)/Liquid Culture (Gray Mould): Conidia of the fungus from cryogenic storage were directly mixed into nutrient broth (Vogels broth). […].45

[8] = tested on: Puccinia recondita f. sp. tritici; details: in Triticum aestivum, foliar, read-out: control of Puccinia recondita f. sp. tritici (percent disease control compared to untreated)
[9] = tested on: Puccinia recondita f. sp. tritici; details: in Triticum aestivum, foliar, read-out: control of Puccinia recondita f. sp. tritici (percent disease control compared to untreated); remark: listed apart in the source
[10] = 200 ppm, liquid culture, PDB, 24° C., 4-5 days after application
[11] = 200 ppm, liquid culture, PDB, 24° C., 3-4 days after application

C/C(=N\OCCCc1cccc(-c2cc(O)cc(C)n2)n1)c1cccc(C)n1 [P.14, 1-(6-methyl-pyridin-2-yl)-ethanone-O-[3-(4′-hydroxy-6′-methyl-[2,2′]bipyridinyl-6-yl)-propyl]-oxime]
≥ 80%: inhibition at 200 ppm [1, 10] | inhibition at 200 ppm [2, 10] | inhibition at 200 ppm (Gaeumannomyces graminis; [10])

C/C(=N\OCCCc1cccc(-c2ccnc(C3CC3)n2)n1)c1cccc(C)n1 [P.07]
≥ 80%: inhibition at 200 ppm [1, 10] | inhibition at 200 ppm [3] | inhibition at 200 ppm [2, 10] | pest or weed control at 200 ppm [4] | inhibition at 200 ppm [5] | pest or weed control at 200 ppm (Pyrenophora teres) | inhibition at 200 ppm (Gaeumannomyces graminis; [10]) | inhibition at 200 ppm [6, 11] | inhibition at 200 ppm [7]

C/C(=N\OCCCc1cccc(-c2ccnc(Cc3ccccc3)n2)n1)c1cccc(C)n1 [P.10]
≥ 80%: inhibition at 200 ppm [1, 10] | inhibition at 200 ppm [2, 10] | pest or weed control at 200 ppm (Pyrenophora teres) | inhibition at 200 ppm (Gaeumannomyces graminis; [10]) | inhibition at 200 ppm [7]

C#CCOc1cc(CC)nc(-c2cccc(CCCO/N=C(\C)c3cccc(C)n3)n2)c1C [P.38]
≥ 80%: inhibition at 200 ppm [1, 10] | pest or weed control at 200 ppm [8] | inhibition at 200 ppm [3] | inhibition at 200 ppm [2, 10] | pest or weed control at 200 ppm [4] | pest or weed control at 200 ppm [9] | pest or weed control at 200 ppm (Pyrenophora teres) | inhibition at 200 ppm [6, 11] | inhibition at 200 ppm [7]

C/C(=N\OCCCc1cccc(-c2cc(OCc3ccccc3)cc(C)n2)n1)c1cccc(C)n1 [P.15]
≥ 80%: inhibition at 200 ppm [1, 10] | pest or weed control at 200 ppm [8] | inhibition at 200 ppm [3] | inhibition at 200 ppm [2, 10] | pest or weed control at 200 ppm [4] | pest or weed control at 200 ppm [9] | inhibition at 200 ppm [5] | pest or weed control at 200 ppm (Pyrenophora teres) | inhibition at 200 ppm (Gaeumannomyces graminis; [10]) | inhibition at 200 ppm [6, 11] | inhibition at 200 ppm [7]

C#CCOc1cc(C)nc(-c2cccc(CCCO/N=C(\C)c3cccc(C)n3)n2)c1 [P.24]
≥ 80%: inhibition at 200 ppm [1, 10] | pest or weed control at 200 ppm [8] | inhibition at 200 ppm [3] | inhibition at 200 ppm [2, 10] | pest or weed control at 200 ppm [4] | pest or weed control at 200 ppm [9] | inhibition at 200 ppm [5] | pest or weed control at 200 ppm (Pyrenophora teres) | inhibition at 200 ppm (Gaeumannomyces graminis; [10]) | inhibition at 200 ppm [7]

C/C(=N\OCCCc1cccc(-c2ccnc(C)n2)n1)c1cccc(C)n1 [P.03]
≥ 80%: inhibition at 200 ppm [1, 10] | pest or weed control at 200 ppm [8] | inhibition at 200 ppm [3] | inhibition at 200 ppm [2, 10] | pest or weed control at 200 ppm [4] | pest or weed control at 200 ppm (Pyrenophora teres) | inhibition at 200 ppm (Gaeumannomyces graminis; [10]) | inhibition at 200 ppm [7]

C/C(=N\OCCCc1cccc(-c2ccncn2)n1)c1cccc(C)n1 [P.06]
≥ 80%: inhibition at 200 ppm [1, 10] | inhibition at 200 ppm (Gaeumannomyces graminis; [10])

CCc1cc(OC(C)C)c(C)c(-c2cccc(CCCO/N=C(\C)c3cccc(C)n3)n2)n1 [P.36]
≥ 80%: inhibition at 200 ppm [1, 10] | pest or weed control at 200 ppm [8] | inhibition at 200 ppm [3] | inhibition at 200 ppm [2, 10] | pest or weed control at 200 ppm [4] | pest or weed control at 200 ppm [9] | pest or weed control at 200 ppm (Pyrenophora teres) | inhibition at 200 ppm [6, 11] | inhibition at 200 ppm [7]

CCc1cc(OC)c(C)c(-c2cccc(CCCO/N=C(\C)c3cccc(C)n3)n2)n1 [P.33]
≥ 80%: inhibition at 200 ppm [1, 10] | pest or weed control at 200 ppm [8] | inhibition at 200 ppm [3] | inhibition at 200 ppm [2, 10] | pest or weed control at 200 ppm [4] | pest or weed control at 200 ppm [9] | pest or weed control at 200 ppm (Pyrenophora teres) | inhibition at 200 ppm [7]

CCOc1cc(CC)nc(-c2cccc(CCCO/N=C(\C)c3cccc(C)n3)n2)c1C [P.34]
≥ 80%: inhibition at 200 ppm [1, 10] | pest or weed control at 200 ppm [8] | inhibition at 200 ppm [3] | inhibition at 200 ppm [2, 10] | pest or weed control at 200 ppm [4] | pest or weed control at 200 ppm [9] | pest or weed control at 200 ppm (Pyrenophora teres) | inhibition at 200 ppm [7]

CC(=O)c1ccc(-c2cccc(CCCO/N=C(\C)c3cccc(C)n3)n2)nc1C [P.20]
≥ 80%: inhibition at 200 ppm [2, 10] | pest or weed control at 200 ppm [4] | pest or weed control at 200 ppm (Pyrenophora teres) | inhibition at 200 ppm (Gaeumannomyces graminis; [10])

CCc1cc(Br)c(C)c(-c2cccc(CCCO/N=C(\C)c3cccc(C)n3)n2)n1 [P.41]
≥ 80%: inhibition at 200 ppm [1, 10] | inhibition at 200 ppm [2, 10] | pest or weed control at 200 ppm [4] | inhibition at 200 ppm [5] | inhibition at 200 ppm [6, 11] | inhibition at 200 ppm [7]

C/C(=N\OCCCc1cccc(-c2ccccn2)n1)c1cccc(C)n1 [P.01]
≥ 80%: pest or weed control at 200 ppm [8] | inhibition at 200 ppm [3] | inhibition at 200 ppm [2, 10] | pest or weed control at 200 ppm [4] | pest or weed control at 200 ppm [9] | inhibition at 200 ppm [5] | pest or weed control at 200 ppm (Pyrenophora teres) | inhibition at 200 ppm [6, 11] | inhibition at 200 ppm [7]

CCON=C(C)c1ccc(-c2cccc(CCCO/N=C(\C)c3cccc(C)n3)n2)nc1C [P.23]
≥ 80%: inhibition at 200 ppm [1, 10] | pest or weed control at 200 ppm [8] | inhibition at 200 ppm [2, 10] | pest or weed control at 200 ppm [4] | pest or weed control at 200 ppm [9] | pest or weed control at 200 ppm (Pyrenophora teres) | inhibition at 200 ppm (Gaeumannomyces graminis; [10]) | inhibition at 200 ppm [6, 11] | inhibition at 200 ppm [7]

C/C(=N\OCCCc1cccc(-c2nccc(C)n2)n1)c1cccc(C)n1 [P.02]
≥ 80%: inhibition at 200 ppm [1] | pest or weed control at 200 ppm [8] | inhibition at 200 ppm [3] | inhibition at 200 ppm [2] | pest or weed control at 200 ppm [4] | pest or weed control at 200 ppm [9] | pest or weed control at 200 ppm (Pyrenophora teres) | inhibition at 200 ppm (Gaeumannomyces graminis) | inhibition at 200 ppm [6]

C=CCOc1cc(CC)nc(-c2cccc(CCCO/N=C(\C)c3cccc(C)n3)n2)c1C [P.37]
≥ 80%: inhibition at 200 ppm [1, 10] | pest or weed control at 200 ppm [8] | inhibition at 200 ppm [3] | inhibition at 200 ppm [2, 10] | pest or weed control at 200 ppm [4] | pest or weed control at 200 ppm [9] | pest or weed control at 200 ppm (Pyrenophora teres) | inhibition at 200 ppm [6, 11] | inhibition at 200 ppm [7]

C/C(=N\OCCCc1cccc(-c2ccnc(-c3ccccc3)n2)n1)c1cccc(C)n1 [P.08]
≥ 80%: inhibition at 200 ppm [1, 10] | inhibition at 200 ppm [2, 10] | inhibition at 200 ppm (Gaeumannomyces graminis; [10]) | inhibition at 200 ppm [7]

CCCOc1cc(CC)nc(-c2cccc(CCCO/N=C(\C)c3cccc(C)n3)n2)c1C [P.35]
≥ 80%: inhibition at 200 ppm [1, 10] | pest or weed control at 200 ppm [8] | inhibition at 200 ppm [3] | inhibition at 200 ppm [2, 10] | pest or weed control at 200 ppm [4] | pest or weed control at 200 ppm [9] | pest or weed control at 200 ppm (Pyrenophora teres) | inhibition at 200 ppm [6, 11] | inhibition at 200 ppm [7]

CCc1cc(Cl)c(C)c(-c2cccc(CCCO/N=C(\C)c3cccc(C)n3)n2)n1 [P.39]
≥ 80%: inhibition at 200 ppm [1, 10] | inhibition at 200 ppm [3] | inhibition at 200 ppm [2, 10] | pest or weed control at 200 ppm [4] | inhibition at 200 ppm [5] | inhibition at 200 ppm [6, 11] | inhibition at 200 ppm [7]

CSc1nccc(-c2cccc(CCCO/N=C(\C)c3cccc(C)n3)n2)n1 [P.09]
≥ 80%: inhibition at 200 ppm [1, 10] | pest or weed control at 200 ppm [8] | inhibition at 200 ppm [2, 10] | pest or weed control at 200 ppm [4] | pest or weed control at 200 ppm (Pyrenophora teres) | inhibition at 200 ppm (Gaeumannomyces graminis; [10]) | inhibition at 200 ppm [7]

C/C(=N\OCCCc1cccc(-c2ncccn2)n1)c1cccc(C)n1 [P.04]
≥ 80%: pest or weed control at 200 ppm [8] | inhibition at 200 ppm [3] | inhibition at 200 ppm [2, 10] | pest or weed control at 200 ppm [4] | pest or weed control at 200 ppm [9] | inhibition at 200 ppm [7]
